Test results published in publication PMC6222545, “Evaluating Marine Cyanobacteria as a Source for CNS Receptor Ligands” (Molecules : A Journal of Synthetic Chemistry and Natural …, 2018).

Columns and labels:
5-HT2C = biological target: T1, 5-HT2C (Homo sapiens, UniProt P28335); assay: PDSP radioligand competitive binding, 5-HT2C
T1 sequence (P28335 33-458): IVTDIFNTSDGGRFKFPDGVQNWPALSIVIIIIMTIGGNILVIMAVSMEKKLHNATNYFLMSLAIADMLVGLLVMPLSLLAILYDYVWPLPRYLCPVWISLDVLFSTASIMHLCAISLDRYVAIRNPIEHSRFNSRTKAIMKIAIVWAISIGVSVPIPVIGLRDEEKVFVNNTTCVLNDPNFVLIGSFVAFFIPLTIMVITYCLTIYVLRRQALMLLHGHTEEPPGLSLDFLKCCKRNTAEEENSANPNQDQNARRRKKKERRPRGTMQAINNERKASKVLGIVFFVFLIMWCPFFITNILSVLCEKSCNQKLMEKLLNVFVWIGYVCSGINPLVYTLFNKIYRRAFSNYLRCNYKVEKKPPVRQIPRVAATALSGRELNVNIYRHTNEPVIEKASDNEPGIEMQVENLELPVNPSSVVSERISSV
Method: (§1) Prior to screening, cyanobacterial samples are extracted exhaustively in a solution of dichloromethane and methanol, then the extract is subjected to column chromatography using the solvent step gradient illustrated in Figure 1 to create nine fractions. The polarities of the solvents in this step gradient increase linearly with each fraction. A sample of each fraction and the crude is prepared and sent to the NIMH Psychoactive Drug Screening Program (PDSP) for screening against a panel of ~50 receptor including 5-HTRs, DARs, MATs, σRs, and other CNS receptors.
(§2) From the extracts of 37 cyanobacterial field collections from Panama and Curacao, 19 crude extracts and 301 fractions were sent to PDSP for CNS screening. Due to sample size requirements not all fractions created are sent for screening, resulting in a lower number of total fractions screened compared to the theoretical amount of 370 fractions and crudes. […] Data analysis of results from these screens is presented herein.
(§3) A cyanobacterial biomass collected at Isla Mina, Panama was extracted exhaustively with CH2Cl2-MeOH (2:1) to afford 3.3 g of crude extract given the identification code DUQ0008. This extract was fractionated to yield nine fractions (A–I). The crude extract, along with the nine fractions were submitted to PDSP for screening. […]

σ2R = biological target: T2, σ2R (Rattus norvegicus, UniProt Q5U3Y7); assay: PDSP radioligand competitive binding, σ2R
T2 sequence (Q5U3Y7 1-176): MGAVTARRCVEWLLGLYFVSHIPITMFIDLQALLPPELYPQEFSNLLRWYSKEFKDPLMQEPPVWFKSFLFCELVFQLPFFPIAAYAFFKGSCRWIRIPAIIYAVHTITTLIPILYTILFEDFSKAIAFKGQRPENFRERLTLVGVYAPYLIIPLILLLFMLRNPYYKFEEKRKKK
Method: as §1, §2, §3

[1] = system: 5-HTRs or any other receptor; assay: PDSP primary radioligand binding screen, CNS receptor panel; set-up: dose or concentration left out as unconfirmed; settings: data not shown
Method: as §1, §2
IC50 determinations/receptor binding profiles were generously provided by the National Institute of Mental Health’s Psychoactive Drug Screening Program, Contract # HHSN-271-2018-00023-C (NIMH PDSP). The NIMH PDSP is Directed by Bryan L. Roth MD, PhD at the University of North Carolina at Chapel Hill and Project Officer Jamie Driscoll at NIMH, Bethesda MD, USA. Detailed information regarding the assay protocol can be found at http://pdspdb.unc.edu/pdspWeb/.

[2] = pure compound resubmitted to PDSP

inhibition of radioligand binding at 5-HTRs or any other receptor [1] [%] | SMILES | inhibition of binding at 5-HT2C (5-HT2C; primary binding, pure compound) | Ki (5-HT2C; [2]) [nM] | affinity for the σ2R (σ2R; in words) | Ki (σ2R; [2]) [nM]
– | C#CCCC[C@H]1OC(=O)[C@H](C(C)C)N(C)C(=O)[C@@H]2CCCN2C(=O)[C@H]([C@@H](C)CC)OC(=O)[C@H](C(C)C)N(C)C(=O)[C@H](C(C)C)NC(=O)[C@H]1C [compound 1, veraguamide C] | greater than 50% | > 10000 | moderate and selective affinity | 316
< 50 | CCCCCCCCC/C(C)=C/C(C/C=C/CCC(=O)OCC)OC (stereo not shown) [compound 2] | – | – | – | –
< 50 | CCCCCCC[C@H]1C[C@@H]1CCC(=O)OCC [compound 3] | – | – | – | –
< 50 | C=C(CCCCCCCCCCCCC)CCCC(=O)O/C=C/COC(C)=O [compound 4, propenediester] | – | – | – | –
